Measurements as given in PubChem BioAssay AID2060328 (Molecular Pharmacology Branch, DTP, NCI, 2025).

System: MDA-MB-231 multicell spheroids, viability (%T/C)
Assay: Anticancer human tumor MDA-MB-231 cell line growth inhibition [IpAb];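 also: viability read after seven days of drug exposure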;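 as to viability, T/C: 100% = DMSO vehicle control viability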
Conditions: for IC50: curve of first compound; for viability, T/C: stronger effect = lower value
Method in brief: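 Multi-cell spheroids of 60% tumour cells, 25% HUVEC and 15% MSC in ultra-low-attachment U-bottom wells, treated with agents combined with ipatasertib or abemaciclib. Half-log ranges top out near clinical Cmax, or 10 microM when Cmax is unknown.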

[1] = second compound 0.1 µM, first compound 0.0316 µM
[2] = second compound 0.1 µM, first compound 0.1 µM
[3] = second compound 0.1 µM, first compound 0.316 µM
[4] = second compound 0.1 µM, first compound 1 µM
[5] = second compound 0.1 µM, first compound 3.16 µM
[6] = second compound 0.1 µM, first compound 10 µM
[7] = second compound 0.316 µM, first compound 0.0316 µM
[8] = second compound 0.316 µM, first compound 0.1 µM
[9] = second compound 0.316 µM, first compound 0.316 µM
[10] = second compound 0.316 µM, first compound 1 µM
[11] = second compound 0.316 µM, first compound 3.16 µM
[12] = second compound 0.316 µM, first compound 10 µM
[13] = second compound 1 µM, first compound 0.0316 µM
[14] = second compound 1 µM, first compound 0.1 µM
[15] = second compound 1 µM, first compound 0.316 µM
[16] = second compound 1 µM, first compound 1 µM
[17] = second compound 1 µM, first compound 3.16 µM
[18] = second compound 1 µM, first compound 10 µM
[19] = second compound 3.16 µM, first compound 0.0316 µM
[20] = second compound 3.16 µM, first compound 0.1 µM
[21] = second compound 3.16 µM, first compound 0.316 µM
[22] = second compound 3.16 µM, first compound 1 µM
[23] = second compound 3.16 µM, first compound 3.16 µM
[24] = second compound 3.16 µM, first compound 10 µM
[25] = second compound 10 µM, first compound 0.0316 µM
[26] = second compound 10 µM, first compound 0.1 µM
[27] = second compound 10 µM, first compound 0.316 µM
[28] = second compound 10 µM, first compound 1 µM
[29] = second compound 10 µM, first compound 3.16 µM
[30] = second compound 10 µM, first compound 10 µM

With `C=CC(=O)N1CCN(c2nc(=O)n(-c3c(C)ccnc3C(C)C)c3nc(-c4c(O)cccc4F)c(F)cc23)C(C)C1` (stereo not given) + CC(C)NCC(C(=O)N1CCN(c2ncnc3c2C(C)CC3O)CC1)c1ccc(Cl)cc1 the IC50 (second compound 0.1 µM) was > 10000 nM, the IC50 (second compound 0.316 µM) was > 10000 nM and the IC50 (second compound 1 µM) was > 10000 nM. For the same compound, the IC50 (second compound 3.16 µM) was > 10000 nM, the IC50 (second compound 10 µM) was < 31.6 nM and the viability, T/C [1] was 111%. It also gave a viability, T/C [2] of 113%, a viability, T/C [3] of 116% and a viability, T/C [4] of 129%. The viability, T/C [5] was 120%, the viability, T/C [6] was 78.3% and the viability, T/C [7] was 96.1%. The viability, T/C [8] was 97%, the viability, T/C [9] was 105% and the viability, T/C [10] was 111%. It also gave a viability, T/C [11] of 95.4%, a viability, T/C [12] of 64.4% and a viability, T/C [13] of 81.9%. For the same compound, the viability, T/C [14] was 79.8%, the viability, T/C [15] was 82.3% and the viability, T/C [16] was 86%. The viability, T/C [17] was 71%, the viability, T/C [18] was 52.6% and the viability, T/C [19] was 57.2%. It also gave a viability, T/C [20] of 68.6%, a viability, T/C [21] of 67% and a viability, T/C [22] of 67.5%. It also gave a viability, T/C [23] of 62.1%, a viability, T/C [24] of 44.5% and a viability, T/C [25] of 42.5%. The viability, T/C [26] was 45.9%, the viability, T/C [27] was 44.4% and the viability, T/C [28] was 42.7%. For the same compound, the viability, T/C [29] was 41.6% and the viability, T/C [30] was 32.1%.
Compound `CC(C)(C)c1cnc(CSc2cnc(NC(=O)C3CCNCC3)s2)o1` + CC(C)NCC(C(=O)N1CCN(c2ncnc3c2C(C)CC3O)CC1)c1ccc(Cl)cc1 has an IC50 (second compound 0.1 µM) of 171 nM, an IC50 (second compound 0.316 µM) of 152 nM and an IC50 (second compound 1 µM) of 140 nM. The IC50 (second compound 3.16 µM) was 109 nM, the IC50 (second compound 10 µM) was < 9.49 nM and the viability, T/C (second compound 0.1 µM, first compound 0.00949 µM) was 110%. For the same compound, the viability, T/C (second compound 0.1 µM, first compound 0.03 µM) was 115%, the viability, T/C (second compound 0.1 µM, first compound 0.0949 µM) was 101% and the viability, T/C (second compound 0.1 µM, first compound 0.3 µM) was 1.85%. The viability, T/C (second compound 0.1 µM, first compound 0.949 µM) was 1.02%, the viability, T/C (second compound 0.1 µM, first compound 3 µM) was 1.06% and the viability, T/C (second compound 0.316 µM, first compound 0.00949 µM) was 94.5%. For the same compound, the viability, T/C (second compound 0.316 µM, first compound 0.03 µM) was 98.8%, the viability, T/C (second compound 0.316 µM, first compound 0.0949 µM) was 83.5% and the viability, T/C (second compound 0.316 µM, first compound 0.3 µM) was 1.35%. It also gave a viability, T/C (second compound 0.316 µM, first compound 0.949 µM) of 0.87%, a viability, T/C (second compound 0.316 µM, first compound 3 µM) of 0.98% and a viability, T/C (second compound 1 µM, first compound 0.00949 µM) of 79.2%. For the same compound, the viability, T/C (second compound 1 µM, first compound 0.03 µM) was 84.8%, the viability, T/C (second compound 1 µM, first compound 0.0949 µM) was 74.4% and the viability, T/C (second compound 1 µM, first compound 0.3 µM) was 2.5%. It also gave a viability, T/C (second compound 1 µM, first compound 0.949 µM) of 0.85%, a viability, T/C (second compound 1 µM, first compound 3 µM) of 0.86% and a viability, T/C (second compound 3.16 µM, first compound 0.00949 µM) of 61.1%. For the same compound, the viability, T/C (second compound 3.16 µM, first compound 0.03 µM) was 61.7%, the viability, T/C (second compound 3.16 µM, first compound 0.0949 µM) was 56.5% and the viability, T/C (second compound 3.16 µM, first compound 0.3 µM) was 1.57%. It also gave a viability, T/C (second compound 3.16 µM, first compound 0.949 µM) of 0.65%, a viability, T/C (second compound 3.16 µM, first compound 3 µM) of 0.78% and a viability, T/C (second compound 10 µM, first compound 0.00949 µM) of 42.1%. The viability, T/C (second compound 10 µM, first compound 0.03 µM) was 43.8%, the viability, T/C (second compound 10 µM, first compound 0.0949 µM) was 35.1% and the viability, T/C (second compound 10 µM, first compound 0.3 µM) was 0.95%. The viability, T/C (second compound 10 µM, first compound 0.949 µM) was 0.79% and the viability, T/C (second compound 10 µM, first compound 3 µM) was 0.8%.
With `Cn1ncc(Cl)c1-c1cc(C(=O)NC(CN)Cc2cccc(F)c2)sc1Cl` (stereo not given) + CC(C)NCC(C(=O)N1CCN(c2ncnc3c2C(C)CC3O)CC1)c1ccc(Cl)cc1 the IC50 (second compound 0.1 µM) was 1590 nM, the IC50 (second compound 0.316 µM) was 1270 nM and the IC50 (second compound 1 µM) was 1100 nM. The IC50 (second compound 3.16 µM) was 471 nM, the IC50 (second compound 10 µM) was < 31.6 nM and the viability, T/C [1] was 99.1%. The viability, T/C [2] was 88%, the viability, T/C [3] was 80.3% and the viability, T/C [4] was 61.8%. For the same compound, the viability, T/C [5] was 33%, the viability, T/C [6] was 0.11% and the viability, T/C [7] was 70.7%. For the same compound, the viability, T/C [8] was 79.4%, the viability, T/C [9] was 71.2% and the viability, T/C [10] was 49%. The viability, T/C [11] was 34.3%, the viability, T/C [12] was 0.12% and the viability, T/C [13] was 74.1%. For the same compound, the viability, T/C [14] was 71.9%, the viability, T/C [15] was 63.1% and the viability, T/C [16] was 50.6%. It also gave a viability, T/C [17] of 32.8%, a viability, T/C [18] of 0.11% and a viability, T/C [19] of 57.3%. For the same compound, the viability, T/C [20] was 59.1%, the viability, T/C [21] was 49.7% and the viability, T/C [22] was 43%. For the same compound, the viability, T/C [23] was 33.6%, the viability, T/C [24] was 0.34% and the viability, T/C [25] was 42.2%. The viability, T/C [26] was 41.1%, the viability, T/C [27] was 37.5% and the viability, T/C [28] was 37.5%. For the same compound, the viability, T/C [29] was 26.1% and the viability, T/C [30] was 0.49%.
With `Cn1nccc1Nc1nccc(-c2ccn(C(CO)c3ccc(Cl)c(F)c3)c(=O)c2)n1` (stereo not given) + CC(C)NCC(C(=O)N1CCN(c2ncnc3c2C(C)CC3O)CC1)c1ccc(Cl)cc1 the IC50 (second compound 0.1 µM) was 259 nM, the IC50 (second compound 0.316 µM) was 45.9 nM and the IC50 (second compound 1 µM) was < 31.6 nM. For the same compound, the IC50 (second compound 3.16 µM) was < 31.6 nM, the IC50 (second compound 10 µM) was < 31.6 nM and the viability, T/C [1] was 64.3%. For the same compound, the viability, T/C [2] was 53.5%, the viability, T/C [3] was 48.7% and the viability, T/C [4] was 43.1%. The viability, T/C [5] was 25.2%, the viability, T/C [6] was 18.7% and the viability, T/C [7] was 52.8%. The viability, T/C [8] was 43.8%, the viability, T/C [9] was 38.1% and the viability, T/C [10] was 29.3%. The viability, T/C [11] was 23.5%, the viability, T/C [12] was 18% and the viability, T/C [13] was 38.7%. It also gave a viability, T/C [14] of 36.1%, a viability, T/C [15] of 32.2% and a viability, T/C [16] of 27.8%. The viability, T/C [17] was 16.3%, the viability, T/C [18] was 15.3% and the viability, T/C [19] was 34.3%. It also gave a viability, T/C [20] of 28.7%, a viability, T/C [21] of 27.1% and a viability, T/C [22] of 21.5%. The viability, T/C [23] was 12.9%, the viability, T/C [24] was 10.4% and the viability, T/C [25] was 24.2%. The viability, T/C [26] was 22.8%, the viability, T/C [27] was 16.7% and the viability, T/C [28] was 14.9%. The viability, T/C [29] was 9% and the viability, T/C [30] was 6.42%.
In the case of `Cn1ncnc1[C@H]1c2n[nH]c(=O)c3cc(F)cc(c23)N[C@@H]1c1ccc(F)cc1` + CC(C)NCC(C(=O)N1CCN(c2ncnc3c2C(C)CC3O)CC1)c1ccc(Cl)cc1, the IC50 (second compound 0.1 µM) is reported as > 100 nM, the IC50 (second compound 0.316 µM) is reported as > 100 nM and the IC50 (second compound 1 µM) is reported as > 100 nM. For the same compound, the IC50 (second compound 3.16 µM) was 2.35 nM, the IC50 (second compound 10 µM) was < 0.316 nM and the viability, T/C (second compound 0.1 µM, first compound 0.000316 µM) was 96.6%. For the same compound, the viability, T/C (second compound 0.1 µM, first compound 0.001 µM) was 89.4%, the viability, T/C (second compound 0.1 µM, first compound 0.00316 µM) was 81.9% and the viability, T/C (second compound 0.1 µM, first compound 0.01 µM) was 78.9%. It also gave a viability, T/C [1] of 76.6%, a viability, T/C [2] of 73.1% and a viability, T/C (second compound 0.316 µM, first compound 0.000316 µM) of 83.9%. The viability, T/C (second compound 0.316 µM, first compound 0.001 µM) was 77%, the viability, T/C (second compound 0.316 µM, first compound 0.00316 µM) was 71.8% and the viability, T/C (second compound 0.316 µM, first compound 0.01 µM) was 70.1%. For the same compound, the viability, T/C [7] was 69.1%, the viability, T/C [8] was 62.1% and the viability, T/C (second compound 1 µM, first compound 0.000316 µM) was 70.4%. The viability, T/C (second compound 1 µM, first compound 0.001 µM) was 68.9%, the viability, T/C (second compound 1 µM, first compound 0.00316 µM) was 59.2% and the viability, T/C (second compound 1 µM, first compound 0.01 µM) was 58%. It also gave a viability, T/C [13] of 56.8%, a viability, T/C [14] of 56.5% and a viability, T/C (second compound 3.16 µM, first compound 0.000316 µM) of 54.6%. For the same compound, the viability, T/C (second compound 3.16 µM, first compound 0.001 µM) was 54.3%, the viability, T/C (second compound 3.16 µM, first compound 0.00316 µM) was 49.6% and the viability, T/C (second compound 3.16 µM, first compound 0.01 µM) was 44.9%. It also gave a viability, T/C [19] of 45.7%, a viability, T/C [20] of 47% and a viability, T/C (second compound 10 µM, first compound 0.000316 µM) of 42.3%. The viability, T/C (second compound 10 µM, first compound 0.001 µM) was 41%, the viability, T/C (second compound 10 µM, first compound 0.00316 µM) was 38.5% and the viability, T/C (second compound 10 µM, first compound 0.01 µM) was 33.8%. The viability, T/C [25] was 34.9% and the viability, T/C [26] was 34.1%.
